Test results as given in ChEMBL document CHEMBL1201862, “PubChem BioAssay data set” (2004).
Calls of active or inactive are those of the source.

Experiments:
[1] = biological target: T1, Fatty acid synthase (Homo sapiens, UniProt P49327); assay: FAS thioesterase domain inhibitors, dose response, biochemical, endpoint fluorescence intensity, uHTS hits (AID 624327); type: functional;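 further: fluorescence from hydrolysis of an O-methyl fluorescein acyl ester substrate by the enzyme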
[2] = biological target: T1, Fatty acid synthase; assay: FAS thioesterase domain inhibitors, dose response, biochemical, kinetic fluorescence intensity (AID 624326); type: functional;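 further: rate of fluorescence rise from hydrolysis of a fluorogenic O-methyl fluorescein ester substrate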
[3] = biological target: T2, Protein RecA (Mycobacterium tuberculosis, UniProt P9WHJ3); assay: Fluorescence Cell-Free Homogeneous Dose Retest to Identify Inhibitors of RecA-Intein Splicing Activity. [Related pubchem assays (depositor defined):AID2097, AID2223, AID489010, AID492950]; type: functional
T2 sequence (P9WHJ3 whole entry): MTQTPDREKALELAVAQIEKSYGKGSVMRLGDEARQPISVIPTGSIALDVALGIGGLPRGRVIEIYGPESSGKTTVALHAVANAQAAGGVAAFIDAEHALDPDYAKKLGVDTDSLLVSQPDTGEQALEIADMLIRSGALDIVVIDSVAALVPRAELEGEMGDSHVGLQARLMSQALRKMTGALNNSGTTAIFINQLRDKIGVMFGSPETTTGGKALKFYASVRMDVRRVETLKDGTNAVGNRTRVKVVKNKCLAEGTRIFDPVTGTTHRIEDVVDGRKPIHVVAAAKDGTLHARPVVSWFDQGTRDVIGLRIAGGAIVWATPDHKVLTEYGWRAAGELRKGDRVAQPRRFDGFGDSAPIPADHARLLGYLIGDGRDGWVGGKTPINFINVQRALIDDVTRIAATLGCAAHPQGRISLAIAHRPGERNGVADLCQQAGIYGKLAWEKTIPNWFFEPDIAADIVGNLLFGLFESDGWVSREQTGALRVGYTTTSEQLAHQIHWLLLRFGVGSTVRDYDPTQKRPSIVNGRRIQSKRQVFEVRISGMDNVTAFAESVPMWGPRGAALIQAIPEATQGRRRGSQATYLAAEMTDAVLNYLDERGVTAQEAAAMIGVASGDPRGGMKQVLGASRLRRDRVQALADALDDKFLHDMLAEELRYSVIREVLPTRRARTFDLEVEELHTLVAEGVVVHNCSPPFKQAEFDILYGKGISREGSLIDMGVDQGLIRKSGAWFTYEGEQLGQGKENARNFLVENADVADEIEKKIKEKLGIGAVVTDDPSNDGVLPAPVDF

[4] = biological target: T3, Replicative DNA helicase DnaB (Mycobacterium tuberculosis, UniProt P9WMR3); assay: DnaB intein splicing inhibitors, dose response, biochemical, cell-free fluorescence (AID 449749); type: functional
T3 sequence (P9WMR3 whole entry): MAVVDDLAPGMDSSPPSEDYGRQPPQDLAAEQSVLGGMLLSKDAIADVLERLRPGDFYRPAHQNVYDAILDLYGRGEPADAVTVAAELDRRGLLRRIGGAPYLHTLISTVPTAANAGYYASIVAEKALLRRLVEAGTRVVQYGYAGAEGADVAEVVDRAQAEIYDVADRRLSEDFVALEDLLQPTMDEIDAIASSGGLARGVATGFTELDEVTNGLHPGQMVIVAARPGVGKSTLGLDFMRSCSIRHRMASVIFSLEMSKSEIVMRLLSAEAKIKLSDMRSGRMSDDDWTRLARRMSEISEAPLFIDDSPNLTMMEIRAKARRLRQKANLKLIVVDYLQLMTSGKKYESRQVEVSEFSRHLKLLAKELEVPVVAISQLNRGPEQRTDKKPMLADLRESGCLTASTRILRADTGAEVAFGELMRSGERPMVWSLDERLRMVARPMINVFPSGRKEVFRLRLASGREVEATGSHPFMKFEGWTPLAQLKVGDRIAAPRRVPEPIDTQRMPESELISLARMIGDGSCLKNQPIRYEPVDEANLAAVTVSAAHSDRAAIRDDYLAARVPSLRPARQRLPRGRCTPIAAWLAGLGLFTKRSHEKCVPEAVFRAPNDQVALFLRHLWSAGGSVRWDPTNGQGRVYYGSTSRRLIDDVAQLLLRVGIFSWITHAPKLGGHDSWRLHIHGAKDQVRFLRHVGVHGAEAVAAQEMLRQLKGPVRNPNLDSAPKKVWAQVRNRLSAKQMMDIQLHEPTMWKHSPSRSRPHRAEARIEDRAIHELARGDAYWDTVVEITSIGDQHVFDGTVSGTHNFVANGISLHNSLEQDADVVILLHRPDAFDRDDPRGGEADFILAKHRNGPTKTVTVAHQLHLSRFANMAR

[5] = biological target: FAD-linked sulfhydryl oxidase ALR (Homo sapiens, UniProt P55789); assay: inhibitors of human ALR sulfhydryl oxidase, dose response, biochemical, H2O2 detection, luminescence, cherry-pick (AID 493248)
Sequence of FAD-linked sulfhydryl oxidase ALR (P55789 whole entry): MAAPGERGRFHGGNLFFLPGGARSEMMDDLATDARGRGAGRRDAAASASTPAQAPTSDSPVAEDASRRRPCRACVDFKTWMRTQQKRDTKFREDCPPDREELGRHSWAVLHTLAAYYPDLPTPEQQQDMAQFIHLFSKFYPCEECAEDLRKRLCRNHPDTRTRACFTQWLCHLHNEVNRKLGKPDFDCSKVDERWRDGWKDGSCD

[6] = Luminescence Cell-Based Dose Response HTS to Identify Activators of Luciferase Translation or Activity in H4 […] Cells. [Related pubchem assays: 1829 (Project Summary), 1814 (Primary HTS)]; type: functional
[7] = biological target: T4, Rac GTPase-activating protein 1 (Homo sapiens, UniProt Q9H0H5); assay: MgcRacGAP GTPase-activating activity inhibitors, confirmation, biochemical, ADP Hunter fluorescence, primary and confirmatory (AID 624330); type: functional
T4 sequence (Q9H0H5 whole entry): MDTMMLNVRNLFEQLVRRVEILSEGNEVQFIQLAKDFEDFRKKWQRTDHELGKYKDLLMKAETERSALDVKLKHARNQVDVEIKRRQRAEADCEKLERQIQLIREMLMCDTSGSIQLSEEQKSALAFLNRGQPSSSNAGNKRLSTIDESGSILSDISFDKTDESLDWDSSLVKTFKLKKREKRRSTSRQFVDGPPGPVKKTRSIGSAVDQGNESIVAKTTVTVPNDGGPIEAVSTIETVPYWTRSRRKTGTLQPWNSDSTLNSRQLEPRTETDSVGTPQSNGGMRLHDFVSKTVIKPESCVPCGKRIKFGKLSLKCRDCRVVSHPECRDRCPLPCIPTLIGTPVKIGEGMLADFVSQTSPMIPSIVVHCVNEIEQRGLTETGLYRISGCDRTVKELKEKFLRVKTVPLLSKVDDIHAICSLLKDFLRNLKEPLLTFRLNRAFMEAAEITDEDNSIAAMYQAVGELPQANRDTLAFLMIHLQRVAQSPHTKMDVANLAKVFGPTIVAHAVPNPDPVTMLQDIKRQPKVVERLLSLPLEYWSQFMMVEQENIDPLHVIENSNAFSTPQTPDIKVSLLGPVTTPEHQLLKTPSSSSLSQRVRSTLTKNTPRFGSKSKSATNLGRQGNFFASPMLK

[8] = NIH-3T3 fibroblast cytotoxicity, dose response, cytotoxicity control, cell-based, fluorescence, Alamar Blue, secondary assay (AID 2327); type: functional;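 further: NIH-3T3 mouse fibroblasts cultured with fluconazole at 8 µg/mL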
[9] = HEp-2 cell cytotoxicity, dose response, cytotoxicity control for RSV inhibitor project, HTS (AID 2410); type: functional; conditions: human respiratory syncytial virus
[10] = biological target: T5, Heat shock factor protein 1 (Mus musculus, UniProt P38532); assay: HSF1 potentiators in luciferase reporter cells, confirmation, cell-based, NIH3T3, luminescence, dose retest (AID 435004); type: functional;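 further: stress induced by proteasome inhibitor MG132 added 30 min after compound; luciferase reporter driven by HSF1 response element in NIH3T3 cells; actives raise luminescence as potentiators of the MG132 stress response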
T5 sequence (P38532 whole entry): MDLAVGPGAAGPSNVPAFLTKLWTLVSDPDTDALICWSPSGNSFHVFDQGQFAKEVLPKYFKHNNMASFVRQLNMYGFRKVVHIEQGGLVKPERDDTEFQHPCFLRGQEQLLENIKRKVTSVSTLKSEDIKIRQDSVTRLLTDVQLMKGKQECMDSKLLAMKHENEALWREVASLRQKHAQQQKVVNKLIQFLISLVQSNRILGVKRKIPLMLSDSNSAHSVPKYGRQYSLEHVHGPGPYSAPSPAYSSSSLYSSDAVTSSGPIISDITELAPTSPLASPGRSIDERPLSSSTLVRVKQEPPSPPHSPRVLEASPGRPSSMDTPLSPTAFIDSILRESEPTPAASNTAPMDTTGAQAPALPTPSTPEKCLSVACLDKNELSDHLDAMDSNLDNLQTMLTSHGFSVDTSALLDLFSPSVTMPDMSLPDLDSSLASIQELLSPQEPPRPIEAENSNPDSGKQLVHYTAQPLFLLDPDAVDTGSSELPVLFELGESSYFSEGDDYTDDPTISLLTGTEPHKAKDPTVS

T1 sequence (P49327 whole entry, the tested form may be a part): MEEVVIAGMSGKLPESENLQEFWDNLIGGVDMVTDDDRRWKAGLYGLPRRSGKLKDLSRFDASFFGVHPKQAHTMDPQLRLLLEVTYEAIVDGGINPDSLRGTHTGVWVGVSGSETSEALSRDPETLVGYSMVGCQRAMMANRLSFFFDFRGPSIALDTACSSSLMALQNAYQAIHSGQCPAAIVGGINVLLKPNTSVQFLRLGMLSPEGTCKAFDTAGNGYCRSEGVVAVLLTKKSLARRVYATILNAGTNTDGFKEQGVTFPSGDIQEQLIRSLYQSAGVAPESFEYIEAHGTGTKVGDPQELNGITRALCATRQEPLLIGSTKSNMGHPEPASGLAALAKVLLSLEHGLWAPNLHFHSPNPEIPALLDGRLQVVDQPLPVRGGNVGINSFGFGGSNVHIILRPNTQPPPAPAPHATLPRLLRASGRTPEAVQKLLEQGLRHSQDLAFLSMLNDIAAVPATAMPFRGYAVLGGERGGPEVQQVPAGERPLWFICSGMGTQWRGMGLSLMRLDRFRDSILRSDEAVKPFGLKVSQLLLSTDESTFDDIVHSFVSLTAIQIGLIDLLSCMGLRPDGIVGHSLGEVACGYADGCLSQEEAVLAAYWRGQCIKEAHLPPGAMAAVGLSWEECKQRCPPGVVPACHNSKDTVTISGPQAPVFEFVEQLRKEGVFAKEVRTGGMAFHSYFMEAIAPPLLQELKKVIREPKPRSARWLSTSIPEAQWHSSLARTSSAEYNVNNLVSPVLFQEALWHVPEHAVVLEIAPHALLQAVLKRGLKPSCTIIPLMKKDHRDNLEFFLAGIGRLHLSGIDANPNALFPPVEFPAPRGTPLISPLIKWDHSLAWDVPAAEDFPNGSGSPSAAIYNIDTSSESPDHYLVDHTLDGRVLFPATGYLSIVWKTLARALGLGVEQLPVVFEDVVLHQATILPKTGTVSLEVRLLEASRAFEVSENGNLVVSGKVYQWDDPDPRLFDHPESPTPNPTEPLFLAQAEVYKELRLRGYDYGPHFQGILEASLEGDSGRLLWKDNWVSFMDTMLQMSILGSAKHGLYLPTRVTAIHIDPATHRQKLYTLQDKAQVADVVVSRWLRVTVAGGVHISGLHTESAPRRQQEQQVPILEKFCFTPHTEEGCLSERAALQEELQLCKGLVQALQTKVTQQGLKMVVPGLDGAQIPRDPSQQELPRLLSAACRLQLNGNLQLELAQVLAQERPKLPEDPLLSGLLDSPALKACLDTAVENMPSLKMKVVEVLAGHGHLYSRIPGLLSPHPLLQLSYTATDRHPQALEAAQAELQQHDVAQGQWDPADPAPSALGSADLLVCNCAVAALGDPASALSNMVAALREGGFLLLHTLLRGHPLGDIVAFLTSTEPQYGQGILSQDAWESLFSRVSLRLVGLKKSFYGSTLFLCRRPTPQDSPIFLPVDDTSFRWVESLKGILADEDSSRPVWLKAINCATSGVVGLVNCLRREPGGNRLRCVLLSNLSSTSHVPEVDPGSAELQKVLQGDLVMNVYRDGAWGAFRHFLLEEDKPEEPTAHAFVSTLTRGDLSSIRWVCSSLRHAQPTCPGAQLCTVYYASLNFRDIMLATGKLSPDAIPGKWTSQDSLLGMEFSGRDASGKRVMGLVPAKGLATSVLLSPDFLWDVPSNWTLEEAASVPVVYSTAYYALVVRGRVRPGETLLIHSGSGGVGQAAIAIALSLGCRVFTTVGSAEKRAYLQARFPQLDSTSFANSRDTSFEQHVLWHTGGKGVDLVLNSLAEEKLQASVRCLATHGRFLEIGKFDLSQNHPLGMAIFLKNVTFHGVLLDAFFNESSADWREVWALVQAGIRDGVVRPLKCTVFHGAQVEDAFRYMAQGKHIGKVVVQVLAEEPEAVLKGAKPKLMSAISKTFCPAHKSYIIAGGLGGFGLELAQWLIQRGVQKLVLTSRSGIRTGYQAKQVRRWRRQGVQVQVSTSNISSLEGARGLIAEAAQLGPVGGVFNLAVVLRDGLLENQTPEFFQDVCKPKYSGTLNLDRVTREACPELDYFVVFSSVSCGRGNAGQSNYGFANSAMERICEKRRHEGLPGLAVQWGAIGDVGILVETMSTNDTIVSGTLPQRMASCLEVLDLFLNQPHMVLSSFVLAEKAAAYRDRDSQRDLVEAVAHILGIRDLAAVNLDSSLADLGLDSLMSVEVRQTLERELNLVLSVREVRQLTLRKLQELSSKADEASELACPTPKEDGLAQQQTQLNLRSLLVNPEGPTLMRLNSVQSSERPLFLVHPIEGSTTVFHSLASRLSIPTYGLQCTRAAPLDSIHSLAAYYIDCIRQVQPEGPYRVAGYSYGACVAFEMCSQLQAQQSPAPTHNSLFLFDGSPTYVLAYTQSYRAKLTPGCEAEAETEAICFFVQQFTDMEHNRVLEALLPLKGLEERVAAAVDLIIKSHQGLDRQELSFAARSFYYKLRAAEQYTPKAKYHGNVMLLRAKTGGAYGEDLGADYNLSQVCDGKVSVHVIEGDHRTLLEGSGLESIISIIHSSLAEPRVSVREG

Structure (SMILES) | IC50 [1] | IC50 [2] | AC50 [5] | other results
COc1ccc(C(=O)CN(CCC(=O)O)S(=O)(=O)c2ccc([N+](=O)[O-])cc2)cc1 | 3.51 µM (active) | 6.15 µM (active) | – | –
COC(=O)Nc1nn(-c2ccc(OC)cc2)c(=O)c(C#N)c1C | – | – | – | EC50 [3]: 6.31 µM (active); AC50 [4]: 25.9 µM (active)
CC(=O)Nc1sc(NC(=O)c2ccccc2)nc1-c1cccs1 | – | – | 3.14 µM (active) | –
CN(C)c1ccc(/C=N/NC(=O)CNC(=O)c2ccncc2)cc1 | – | – | 3.61 µM (active) | –
CCS(=O)(=O)N1CCN=C1SCc1cccnc1 | – | – | 2.06 µM (active) | –
Cc1onc(-c2ccccc2)c1C(=O)n1nnc2ccccc21 | 12.9 µM (active) | 10.3 µM (active) | – | EC50 [3]: 13 µM (active); AC50 [4]: 7.85 µM (active)
C/C(CC(=O)NCc1ccco1)=N\NC(=O)c1ccc([N+](=O)[O-])cc1Cl | – | – | – | EC50 [3]: 5.56 µM (active); AC50 [4]: 10.2 µM (active)
O=[N+]([O-])c1ccc(CSc2ccc(S(=O)(=O)N3CCCC3)cn2)cc1 | 12.1 µM (active) | 10.6 µM (active) | – | –
CCN(CC)c1ccc(NS(=O)(=O)c2ccc(OC)cc2)cc1 | – | – | 5.11 µM (active) | –
COC(=O)N/N=C\c1ccc(OC(=O)c2ccco2)cc1 | – | – | – | EC50 [3]: 16.7 µM (active); AC50 [4]: 44.6 µM (active)
COc1ccc(C2=NC(c3ccccc3)CO2)cc1 (configuration not stated) | – | – | – | EC50 [6]: 39.5 µM (active)
O=C1NC(=O)N(c2ccc(C(=O)O)cc2)C(=O)/C1=C/c1c[nH]c2ccccc12 | – | – | 0.177 µM (active) | IC50 [7]: 97.5 µM (active)
O=C(Cc1ccc(Cl)cc1)Nc1ccc(Br)cc1 | – | – | – | EC50 [8]: > 150 µM (inconclusive)
CCCC(C)C1c2c(c(C)c(C)oc2=O)Oc2c(C)c(C)oc(=O)c21 (configuration not stated) | 9.33 µM (active) | 8.38 µM (active) | – | –
Cc1ccc(/C=C/c2ccc(=O)n(Cc3ccc(F)cc3)n2)cc1 | 11.8 µM (active) | 14 µM (active) | – | –
O=C(COC(=O)c1cc([N+](=O)[O-])ccc1N1CCOCC1)c1ccccc1 | 9.63 µM (active) | 6.51 µM (active) | – | –
COc1ccc(NC(=O)N2CCN(c3nc(-c4cccc(OC)c4)cs3)CC2)cc1 | – | – | – | CC50 [9]: 9.75 µM (active)
CC[C@@H]1[C@H]2CCCC(=O)N3CC[C@@H](C[C@@H]1Nc1ccccc1)[C@@H]23 | – | – | 0.008 µM (active) | EC50 [10]: > 260 µM (inactive)
CCOC(=O)c1ccc2[nH]c3c(c2c1)CCCC3O (configuration not stated) | – | – | – | CC50 [9]: 47.1 µM (active)
